Source: the supplement of paper PMC13207355

Legend:
Details in all cases: exposure time: 72 h
E28 [1] = patient-derived glioblastoma stem cells of classical subtype; assay: phenotypic distance (Euclidean, principal components) from DMSO controls (arbitrary units); higher = stronger morphological change
FT3469 [2] = normal neural stem cell line; assay: as above
E13 [3] = patient-derived glioblastoma stem cells of classical subtype; assay: as above
E34 [4] = patient-derived glioblastoma stem cells of proneural subtype; assay: as above
E57 [5] = patient-derived glioblastoma stem cells of mesenchymal subtype; assay: as above
E21 [6] = patient-derived glioblastoma stem cells of mesenchymal subtype; assay: as above
E31 [7] = patient-derived glioblastoma stem cells of proneural subtype; assay: as above
E28 [8] = assay: surviving fraction (nuclei count normalised to DMSO); higher = more cells surviving (less toxic)
FT3469 [9] = assay: as above
E13 [10] = assay: as above
E34 [11] = assay: as above
E57 [12] = assay: as above
E21 [13] = assay: as above
E31 [14] = assay: as above
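For phenotypic distance (Euclidean, principal components) from DMSO controls in this document: cell Painting imaging in 384-well plates, CellProfiler features reduced to at least 20 principal components, Euclidean distance versus same-plate DMSO vehicle wells (0.1% v/v), median over six images per well.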
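For surviving fraction (nuclei count normalised to DMSO) in this document: nuclei counted by high-content imaging of Hoechst-stained cells in laminin-coated 384-well plates, relative to 0.1% DMSO vehicle wells, with staurosporine as cell-death control.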

## CCCCCC[C@H]1C(=O)O[C@H](C)[C@H](NC(=O)c2cccc(NC=O)c2O)C(=O)O[C@@H](C)[C@@H]1OC(=O)CC(C)C [Antimycin A]
E28 [1]; 4.1 nM
  phenotypic distance: 0.765
E28 [1]; 12.3 nM
  phenotypic distance: 1.08
E28 [1]; 37 nM
  phenotypic distance: 1.34
E28 [1]; 111.1 nM
  phenotypic distance: 1.41
E28 [1]; 333.3 nM
  phenotypic distance: 1.38
E28 [1]; 1000 nM
  phenotypic distance: 1.86
E28 [1]; 3000 nM
  phenotypic distance: 1.87
FT3469 [2]; 4.1 nM
  phenotypic distance: 0.791
FT3469 [2]; 12.3 nM
  phenotypic distance: 1.47
FT3469 [2]; 37 nM
  phenotypic distance: 1.52
FT3469 [2]; 111.1 nM
  phenotypic distance: 1.43
FT3469 [2]; 333.3 nM
  phenotypic distance: 1.68
FT3469 [2]; 1000 nM
  phenotypic distance: 1.44
FT3469 [2]; 3000 nM
  phenotypic distance: 1.34
E13 [3]; 4.1 nM
  phenotypic distance: 2.21
E13 [3]; 12.3 nM
  phenotypic distance: 2
E13 [3]; 37 nM
  phenotypic distance: 1.93
E13 [3]; 111.1 nM
  phenotypic distance: 2.18
E13 [3]; 333.3 nM
  phenotypic distance: 2.6
E13 [3]; 1000 nM
  phenotypic distance: 2.46
E13 [3]; 3000 nM
  phenotypic distance: 3.04
E34 [4]; 4.1 nM
  phenotypic distance: 1.81
E34 [4]; 12.3 nM
  phenotypic distance: 2.11
E34 [4]; 37 nM
  phenotypic distance: 1.7
E34 [4]; 111.1 nM
  phenotypic distance: 2.19
E34 [4]; 333.3 nM
  phenotypic distance: 2.19
E34 [4]; 1000 nM
  phenotypic distance: 2.08
E34 [4]; 3000 nM
  phenotypic distance: 1.39
E57 [5]; 4.1 nM
  phenotypic distance: 2.07
E57 [5]; 12.3 nM
  phenotypic distance: 3.56
E57 [5]; 37 nM
  phenotypic distance: 4.06
E57 [5]; 111.1 nM
  phenotypic distance: 4.75
E57 [5]; 333.3 nM
  phenotypic distance: 4.39
E57 [5]; 1000 nM
  phenotypic distance: 4.71
E57 [5]; 3000 nM
  phenotypic distance: 5.22
E21 [6]; 4.1 nM
  phenotypic distance: 3.65
E21 [6]; 12.3 nM
  phenotypic distance: 3.44
E21 [6]; 37 nM
  phenotypic distance: 4.09
E21 [6]; 111.1 nM
  phenotypic distance: 3.93
E21 [6]; 333.3 nM
  phenotypic distance: 3.39
E21 [6]; 1000 nM
  phenotypic distance: 3.78
E21 [6]; 3000 nM
  phenotypic distance: 3.71
E31 [7]; 4.1 nM
  phenotypic distance: 1.51
E31 [7]; 12.3 nM
  phenotypic distance: 1.62
E31 [7]; 37 nM
  phenotypic distance: 1.68
E31 [7]; 111.1 nM
  phenotypic distance: 1.91
E31 [7]; 333.3 nM
  phenotypic distance: 2
E31 [7]; 1000 nM
  phenotypic distance: 1.59
E31 [7]; 3000 nM
  phenotypic distance: 1.73
E28 [8]; 4.1 nM
  surviving fraction: 0.8
E28 [8]; 12.3 nM
  surviving fraction: 0.561
E28 [8]; 37 nM
  surviving fraction: 0.625
E28 [8]; 111.1 nM
  surviving fraction: 0.585
E28 [8]; 333.3 nM
  surviving fraction: 0.506
E28 [8]; 1000 nM
  surviving fraction: 0.527
E28 [8]; 3000 nM
  surviving fraction: 0.521
FT3469 [9]; 4.1 nM
  surviving fraction: 0.95
FT3469 [9]; 12.3 nM
  surviving fraction: 0.895
FT3469 [9]; 37 nM
  surviving fraction: 0.872
FT3469 [9]; 111.1 nM
  surviving fraction: 0.823
FT3469 [9]; 333.3 nM
  surviving fraction: 0.719
FT3469 [9]; 1000 nM
  surviving fraction: 0.929
FT3469 [9]; 3000 nM
  surviving fraction: 0.659
E13 [10]; 4.1 nM
  surviving fraction: 0.562
E13 [10]; 12.3 nM
  surviving fraction: 0.544
E13 [10]; 37 nM
  surviving fraction: 0.546
E13 [10]; 111.1 nM
  surviving fraction: 0.571
E13 [10]; 333.3 nM
  surviving fraction: 0.512
E13 [10]; 1000 nM
  surviving fraction: 0.538
E13 [10]; 3000 nM
  surviving fraction: 0.416
E34 [11]; 4.1 nM
  surviving fraction: 0.771
E34 [11]; 12.3 nM
  surviving fraction: 0.666
E34 [11]; 37 nM
  surviving fraction: 0.745
E34 [11]; 111.1 nM
  surviving fraction: 0.619
E34 [11]; 333.3 nM
  surviving fraction: 0.717
E34 [11]; 1000 nM
  surviving fraction: 0.682
E34 [11]; 3000 nM
  surviving fraction: 0.652
E57 [12]; 4.1 nM
  surviving fraction: 0.694
E57 [12]; 12.3 nM
  surviving fraction: 0.642
E57 [12]; 37 nM
  surviving fraction: 0.581
E57 [12]; 111.1 nM
  surviving fraction: 0.515
E57 [12]; 333.3 nM
  surviving fraction: 0.61
E57 [12]; 1000 nM
  surviving fraction: 0.513
E57 [12]; 3000 nM
  surviving fraction: 0.466
E21 [13]; 4.1 nM
  surviving fraction: 0.588
E21 [13]; 12.3 nM
  surviving fraction: 0.629
E21 [13]; 37 nM
  surviving fraction: 0.542
E21 [13]; 111.1 nM
  surviving fraction: 0.55
E21 [13]; 333.3 nM
  surviving fraction: 0.594
E21 [13]; 1000 nM
  surviving fraction: 0.585
E21 [13]; 3000 nM
  surviving fraction: 0.494
E31 [14]; 4.1 nM
  surviving fraction: 0.793
E31 [14]; 12.3 nM
  surviving fraction: 0.864
E31 [14]; 37 nM
  surviving fraction: 0.779
E31 [14]; 111.1 nM
  surviving fraction: 0.683
E31 [14]; 333.3 nM
  surviving fraction: 0.721
E31 [14]; 1000 nM
  surviving fraction: 0.599
E31 [14]; 3000 nM
  surviving fraction: 0.661

## C[C@H]1Oc2cc(cnc2N)-c2c(nn(C)c2C#N)CN(C)C(=O)c2ccc(F)cc21 [Lorlatinib]
E28 [1]; 4.1 nM
  phenotypic distance: 1.06
E28 [1]; 12.3 nM
  phenotypic distance: 0.784
E28 [1]; 37 nM
  phenotypic distance: 1.27
E28 [1]; 111.1 nM
  phenotypic distance: 1.47
E28 [1]; 333.3 nM
  phenotypic distance: 1.29
E28 [1]; 1000 nM
  phenotypic distance: 1.31
E28 [1]; 3000 nM
  phenotypic distance: 1.79
FT3469 [2]; 4.1 nM
  phenotypic distance: 1.48
FT3469 [2]; 12.3 nM
  phenotypic distance: 0.861
FT3469 [2]; 37 nM
  phenotypic distance: 1.31
FT3469 [2]; 111.1 nM
  phenotypic distance: 0.981
FT3469 [2]; 333.3 nM
  phenotypic distance: 1.15
FT3469 [2]; 1000 nM
  phenotypic distance: 0.901
FT3469 [2]; 3000 nM
  phenotypic distance: 1.54
E13 [3]; 4.1 nM
  phenotypic distance: 0.964
E13 [3]; 12.3 nM
  phenotypic distance: 0.749
E13 [3]; 37 nM
  phenotypic distance: 1.19
E13 [3]; 111.1 nM
  phenotypic distance: 0.958
E13 [3]; 333.3 nM
  phenotypic distance: 0.954
E13 [3]; 1000 nM
  phenotypic distance: 1.09
E13 [3]; 3000 nM
  phenotypic distance: 0.943
E34 [4]; 4.1 nM
  phenotypic distance: 0.575
E34 [4]; 12.3 nM
  phenotypic distance: 0.814
E34 [4]; 37 nM
  phenotypic distance: 1.28
E34 [4]; 111.1 nM
  phenotypic distance: 0.761
E34 [4]; 333.3 nM
  phenotypic distance: 1.2
E34 [4]; 1000 nM
  phenotypic distance: 0.726
E34 [4]; 3000 nM
  phenotypic distance: 1.84
E57 [5]; 4.1 nM
  phenotypic distance: 2.11
E57 [5]; 12.3 nM
  phenotypic distance: 3.34
E57 [5]; 37 nM
  phenotypic distance: 2.79
E57 [5]; 111.1 nM
  phenotypic distance: 3.21
E57 [5]; 333.3 nM
  phenotypic distance: 2.46
E57 [5]; 1000 nM
  phenotypic distance: 2.74
E57 [5]; 3000 nM
  phenotypic distance: 2.66
E21 [6]; 4.1 nM
  phenotypic distance: 0.926
E21 [6]; 12.3 nM
  phenotypic distance: 2.32
E21 [6]; 37 nM
  phenotypic distance: 1.09
E21 [6]; 111.1 nM
  phenotypic distance: 0.89
E21 [6]; 333.3 nM
  phenotypic distance: 1.37
E21 [6]; 1000 nM
  phenotypic distance: 1.41
E21 [6]; 3000 nM
  phenotypic distance: 1.96
E31 [7]; 4.1 nM
  phenotypic distance: 0.873
E31 [7]; 12.3 nM
  phenotypic distance: 1.38
E31 [7]; 37 nM
  phenotypic distance: 2.47
E31 [7]; 111.1 nM
  phenotypic distance: 0.874
E31 [7]; 333.3 nM
  phenotypic distance: 1.08
E31 [7]; 1000 nM
  phenotypic distance: 1.32
E31 [7]; 3000 nM
  phenotypic distance: 1.4
E28 [8]; 4.1 nM
  surviving fraction: 1.11
E28 [8]; 12.3 nM
  surviving fraction: 1.02
E28 [8]; 37 nM
  surviving fraction: 1.05
E28 [8]; 111.1 nM
  surviving fraction: 0.843
E28 [8]; 333.3 nM
  surviving fraction: 0.913
E28 [8]; 1000 nM
  surviving fraction: 1.07
E28 [8]; 3000 nM
  surviving fraction: 0.911
FT3469 [9]; 4.1 nM
  surviving fraction: 0.89
FT3469 [9]; 12.3 nM
  surviving fraction: 1.1
FT3469 [9]; 37 nM
  surviving fraction: 0.999
FT3469 [9]; 111.1 nM
  surviving fraction: 0.981
FT3469 [9]; 333.3 nM
  surviving fraction: 1.03
FT3469 [9]; 1000 nM
  surviving fraction: 1.06
FT3469 [9]; 3000 nM
  surviving fraction: 0.834
E13 [10]; 4.1 nM
  surviving fraction: 1.03
E13 [10]; 12.3 nM
  surviving fraction: 0.961
E13 [10]; 37 nM
  surviving fraction: 1.08
E13 [10]; 111.1 nM
  surviving fraction: 1.08
E13 [10]; 333.3 nM
  surviving fraction: 1.11
E13 [10]; 1000 nM
  surviving fraction: 1
E13 [10]; 3000 nM
  surviving fraction: 1.01
E34 [11]; 4.1 nM
  surviving fraction: 1.02
E34 [11]; 12.3 nM
  surviving fraction: 0.994
E34 [11]; 37 nM
  surviving fraction: 0.939
E34 [11]; 111.1 nM
  surviving fraction: 1.09
E34 [11]; 333.3 nM
  surviving fraction: 0.999
E34 [11]; 1000 nM
  surviving fraction: 1.1
E34 [11]; 3000 nM
  surviving fraction: 0.792
E57 [12]; 4.1 nM
  surviving fraction: 0.87
E57 [12]; 12.3 nM
  surviving fraction: 0.808
E57 [12]; 37 nM
  surviving fraction: 0.891
E57 [12]; 111.1 nM
  surviving fraction: 0.816
E57 [12]; 333.3 nM
  surviving fraction: 0.815
E57 [12]; 1000 nM
  surviving fraction: 0.794
E57 [12]; 3000 nM
  surviving fraction: 0.757
E21 [13]; 4.1 nM
  surviving fraction: 0.887
E21 [13]; 12.3 nM
  surviving fraction: 0.918
E21 [13]; 37 nM
  surviving fraction: 0.876
E21 [13]; 111.1 nM
  surviving fraction: 0.918
E21 [13]; 333.3 nM
  surviving fraction: 0.862
E21 [13]; 1000 nM
  surviving fraction: 0.924
E21 [13]; 3000 nM
  surviving fraction: 0.768
E31 [14]; 4.1 nM
  surviving fraction: 1.23
E31 [14]; 12.3 nM
  surviving fraction: 0.867
E31 [14]; 37 nM
  surviving fraction: 1.06
E31 [14]; 111.1 nM
  surviving fraction: 0.986
E31 [14]; 333.3 nM
  surviving fraction: 1.17
E31 [14]; 1000 nM
  surviving fraction: 1.08
E31 [14]; 3000 nM
  surviving fraction: 1.01
